Experimental data: patent publication US10770169B2, “Method of providing a treatment to a subject based on a dynamic pathway map” (THE REGENTS OF THE UNIVERSITY OF CALIFORNIA, priority 2010, dated 2020)
Where two headings read alike, the source gives them in different places.

Tests used:
Format in all cases: cell-based, human
[1] = system: panel of 55 breast cancer cell lines; assay: Cell growth inhibition assay (Cell Titer Glo, 72 h, 9 doses; GI50, TGI, LC50); conditions: Homo sapiens, read-out: GI50 (converted)
[2] = system: luminal, basal, claudin-low and ERBB2AMP breast cancer cell lines; assay: Associations of clinically relevant subtypes and response (non-parametric ANOVA or t-test on GI50 ranks)
How it was run: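 GI50 values were compared between cell-line subtype groups by non-parametric ANOVA or t-test on ranks. P-values from three test sets were combined and FDR-corrected. Significant three-group effects were followed by post-hoc comparison of each group against all others, and FDR p<0.20 counted as significant.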

[3] = system: breast cancer cell lines with aberrant vs normal copy number; assay: Association of recurrent copy number changes and response (t-test on GI50); conditions: FDR p<0.2
Excerpt: We used a t-test to assess the association between recurrent copy number changes (at 8q24 (MYC), 11q13 (CCND1), 20q13 (STK15/AURKA)) and drug sensitivity. We combined into a single group cell lines with low or no amplification and compared them to cell lines with high amplification. […] Cell lines for which the GI50 was equal to the maximum concentration tested were omitted from analysis. We omitted compounds where any group had fewer than five samples.

## C/C(=C\c1csc(C)n1)[C@@H]1C[C@@H]2O[C@]2(C)CCC[C@H](C)[C@H](O)[C@@H](C)C(=O)C(C)(C)[C@@H](O)CC(=O)N1 [Ixabepilone]
[1]; 600MPE cell line, censored GI50 values
  GI50: 5250 nM
[1]; AU565, AU565 cell line, censored GI50 values
  GI50: 4.27 nM
[1]; AU565, cell line AU565
  GI50: 4.27 nM
[1]; BT-20, BT20 cell line, censored GI50 values
  GI50: 8.13 nM
[1]; BT-20, cell line BT20
  GI50: 8.13 nM
[1]; BT-474, BT474 cell line, censored GI50 values
  GI50: 8.32 nM
[1]; BT-474, cell line BT474
  GI50: 8.32 nM
[1]; BT-483, BT483 cell line, censored GI50 values
  GI50: 5370 nM
[1]; BT-483, cell line BT483
  GI50: 5370 nM
[1]; BT-549, BT549 cell line, censored GI50 values
  GI50: 6.03 nM
[1]; BT-549, cell line BT549
  GI50: 6.03 nM
[1]; CAMA-1, CAMA1 cell line, censored GI50 values
  GI50: 1 nM
[1]; CAMA-1, cell line CAMA1
  GI50: 1 nM
[1]; HCC38, HCC38 cell line, censored GI50 values
  GI50: 2.82 nM
[1]; HCC38, cell line HCC38
  GI50: 2.82 nM
[1]; HCC70, HCC70 cell line, censored GI50 values
  GI50: 1.41 nM
[1]; HCC70, cell line HCC70
  GI50: 1.41 nM
[1]; HCC202, HCC202 cell line, censored GI50 values
  GI50: 20000 nM
[1]; HCC202, cell line HCC202
  GI50: 20000 nM
[1]; HCC1143, HCC1143 cell line, censored GI50 values
  GI50: 9.77 nM
[1]; HCC1143, cell line HCC1143
  GI50: 9.77 nM
[1]; HCC1187, HCC1187 cell line, censored GI50 values
  GI50: 2.19 nM
[1]; HCC1187, cell line HCC1187
  GI50: 2.19 nM
[1]; HCC1395, HCC1395 cell line, censored GI50 values
  GI50: 12 nM
[1]; HCC1395, cell line HCC1395
  GI50: 12 nM
[1]; HCC1419, HCC1419 cell line, censored GI50 values
  GI50: 11000 nM
[1]; HCC1419, cell line HCC1419
  GI50: 11000 nM
[1]; HCC1428, HCC1428 cell line, censored GI50 values
  GI50: 58.9 nM
[1]; HCC1428, cell line HCC1428
  GI50: 58.9 nM
[1]; HCC1500, HCC1500 cell line, censored GI50 values
  GI50: 3.24 nM
[1]; HCC1500, cell line HCC1500
  GI50: 3.24 nM
[1]; HCC1806, HCC1806 cell line, censored GI50 values
  GI50: 4.9 nM
[1]; HCC1806, cell line HCC1806
  GI50: 4.9 nM
[1]; HCC1937, HCC1937 cell line, censored GI50 values
  GI50: 309 nM
[1]; HCC1937, cell line HCC1937
  GI50: 309 nM
[1]; HCC1954, HCC1954 cell line, censored GI50 values
  GI50: 1.95 nM
[1]; HCC1954, cell line HCC1954
  GI50: 1.95 nM
[1]; HCC2185 cell line, censored GI50 values
  GI50: 9120 nM
[1]; HCC3153 cell line, censored GI50 values
  GI50: 6.17 nM
[1]; LY2 cell line, censored GI50 values
  GI50: 6.03 nM
[1]; MCF7, MCF7 cell line, censored GI50 values
  GI50: 0.363 nM
[1]; MCF7, cell line MCF7
  GI50: 0.363 nM
[1]; MDA-MB-134-VI, MDAMB134VI cell line, censored GI50 values
  GI50: 1.62 nM
[1]; MDA-MB-157, MDAMB157 cell line, censored GI50 values
  GI50: 4.9 nM
[1]; MDA-MB-157, cell line MDAMB157
  GI50: 4.9 nM
[1]; MDA-MB-231, MDAMB231 cell line, censored GI50 values
  GI50: 0.457 nM
[1]; MDA-MB-231, cell line MDAMB231
  GI50: 0.457 nM
[1]; MDA-MB-361, MDAMB361 cell line, censored GI50 values
  GI50: 2.29 nM
[1]; MDA-MB-361, cell line MDAMB361
  GI50: 2.29 nM
[1]; MDA-MB-415, MDAMB415 cell line, censored GI50 values
  GI50: 8.13 nM
[1]; MDA-MB-415, cell line MDAMB415
  GI50: 8.13 nM
[1]; MDA-MB-436, MDAMB436 cell line, censored GI50 values
  GI50: 5.75 nM
[1]; MDA-MB-436, cell line MDAMB436
  GI50: 5.75 nM
[1]; MDA-MB-453, MDAMB453 cell line, censored GI50 values
  GI50: 7.76 nM
[1]; MDA-MB-453, cell line MDAMB453
  GI50: 7.76 nM
[1]; MDA-MB-468, MDAMB468 cell line, censored GI50 values
  GI50: 1.32 nM
[1]; MDA-MB-468, cell line MDAMB468
  GI50: 1.32 nM
[1]; SK-BR-3, SKBR3 cell line, censored GI50 values
  GI50: 10.5 nM
[1]; SK-BR-3, cell line SKBR3
  GI50: 10.5 nM
[1]; SUM52PE, SUM52PE cell line, censored GI50 values
  GI50: 2.95 nM
[1]; SUM52PE, cell line SUM52PE
  GI50: 2.95 nM
[1]; SUM149PT, SUM149PT cell line, censored GI50 values
  GI50: 5.5 nM
[1]; SUM149PT, cell line SUM149PT
  GI50: 5.5 nM
[1]; SUM185PE, SUM185PE cell line, censored GI50 values
  GI50: 8.51 nM
[1]; SUM185PE, cell line SUM185PE
  GI50: 8.51 nM
[1]; SUM225CWN, SUM225CWN cell line, censored GI50 values
  GI50: 20000 nM
[1]; SUM225CWN, cell line SUM225CWN
  GI50: 20000 nM
[1]; SUM1315MO2, SUM1315MO2 cell line, censored GI50 values
  GI50: 6.03 nM
[1]; SUM-159-PT, SUM159PT cell line, censored GI50 values
  GI50: 6.92 nM
[1]; SUM-159-PT, cell line SUM159PT
  GI50: 6.92 nM
[1]; T47D, T47D cell line, censored GI50 values
  GI50: 7.94 nM
[1]; T47D, cell line T47D
  GI50: 7.94 nM
[1]; UACC-812, UACC812 cell line, censored GI50 values
  GI50: 5890 nM
[1]; UACC-812, cell line UACC812
  GI50: 5890 nM
[1]; UACC-893, UACC893 cell line, censored GI50 values
  GI50: 6.31 nM
[1]; UACC-893, cell line UACC893
  GI50: 6.31 nM
[1]; ZR-75-1, ZR751 cell line, censored GI50 values
  GI50: 295 nM
[1]; ZR-75-1, cell line ZR751
  GI50: 295 nM
[1]; cell line 600MPE
  GI50: 5250 nM
[1]; cell line HCC2185
  GI50: 9120 nM
[1]; cell line HCC3153
  GI50: 6.17 nM
[1]; cell line LY2
  GI50: 6.03 nM
[1]; cell line MDAMB134V
  GI50: 1.62 nM
[1]; cell line SUM1315MO
  GI50: 6.03 nM
[2]; GI50 across subtypes
  subtype-specific response (sensitivity by transcriptional subtype): more active against basal and claudin-low cell lines
[2]; Table 6, most sensitive subtype, FDR p<0.20
  Subtype specificity: Basal + Claudin-low
[3]
  association of response with homozygous deletion at 9p21 (CDKN2A): associated with response
